Here are results for 10 compounds from patent publication EP4631940A1, “COMPOUND TARGETING PAN-KRAS PROTEIN DEGRADATION AGENT AND USE THEREOF” (Betta Pharmaceuticals Co., Ltd., priority 2022, dated 2024).

One series concerns AGS. Description: Cell proliferation experiment (CellTiter-Glo). The format is cell-based. The settings on record: read-out: IC50(nM) AGS. (In general: ATP-based viability assays read luminescence as a measure of living cells.)
For another series, the system named is SW620. Description: Cell proliferation experiment (CellTiter-Glo). The format is cell-based. Conditions: read-out: IC50(nM) SW620.
The subject of a further series is H358. Nature of the series: Cell proliferation experiment (CellTiter-Glo). Conditions: H358, KRAS mutation type G12C, 96 h incubation. It counts as cell-based.
Series [1] concerns the target T1, KRAS G12D (Homo sapiens, UniProt P01116, G12D).
The nature of series [2]: in vitro. The settings on record: human, microsomes.
Series [3] in a line: in vitro. Conditions: rat, microsomes.
A short description of series [4]: in vitro. Conditions: mouse, microsomes.
Series [5] is described as follows: in vitro. Conditions: dog, microsomes.
The target in series [6] is T1, KRAS G12D. Nature of the series: cell-based. The settings on record: AGS.
Series [7] in a line: PK study in ICR mice (whole blood). The format is in vivo. The settings on record: Female ICR mice, IV 1 mg/kg; for AUC(0-t) / half-life / C0: mouse; for C0: read-out: C0. As for the experimental part:
Example 8 PK Study of Compound in ICR Mice (whole blood)
The compound was mixed with the vehicle (10% DMSO / 5% Solutol HS 15 / 85% saline), vortexed, and sonicated to prepare a clear solution at 0.2 mg/mL. Female ICR mice aged 6 to 7 weeks (non-fasted) were intravenously administered the compound. Whole blood was collected at specified time points. Drug concentration was analyzed by LC-MS/MS, and pharmacokinetic parameters were calculated using Phoenix WinNonlin software (Pharsight Corporation, USA). Table 11 Mouse PK Data for Intravenous Compound Monotherapy

The next series relates to PK59. Nature of the series: Cell proliferation experiment (CellTiter-Glo). The settings on record: PK-59; PK59, KRAS mutation type G12D; 96 h incubation. The format is cell-based.

Read-outs that look alike come from different tables or passages of the source.

T1 sequence (P01116 1-188 isoform P01116-2 G12D): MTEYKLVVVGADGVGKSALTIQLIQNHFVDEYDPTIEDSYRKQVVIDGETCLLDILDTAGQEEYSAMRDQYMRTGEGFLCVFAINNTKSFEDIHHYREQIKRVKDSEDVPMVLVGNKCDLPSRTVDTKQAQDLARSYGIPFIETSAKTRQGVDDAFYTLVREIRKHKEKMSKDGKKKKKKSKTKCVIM

Turning to `CCc1c(F)ccc2cc(O)cc(-c3ncc4c(N5CCC[C@@](C)(O)C5)nc(OCC5(CN6CCC7(CC6)CN(c6ccc(-c8cn([C@H](C(=O)N9C[C@H](O)C[C@H]9C(=O)N[C@@H](C)c9ccc(-c%10scnc%10C)cc9)C(C)C)nn8)cc6)C7)CC5)nc4c3F)c12` [Compound 75], the IC50 turned out to be 11 nM with AGS (Homo sapiens, AGS, 96 h); 122 nM in the series on SW620 (Homo sapiens, SW-620, 96 h); 40 nM in the series with H358 (Homo sapiens, NCI-H358). The DC50 at KRAS G12D [1] came out at 24 nM. Moreover, the intrinsic metabolic clearance (microsomal CLint) was 1 µL/min/mg in “in vitro [2]”, 20.7 µL/min/mg in “in vitro [3]”, 8.6 µL/min/mg in “in vitro [4]” and 22.1 µL/min/mg in the series “in vitro [5]”. Moreover, on KRAS G12D [6], the Dmax amounted to 95%.
As for `CCc1c(F)ccc2cc(O)cc(-c3ncc4c(N5CCC[C@@](C)(O)C5)nc(OC[C@]56CCCN5[C@@H](COC(=O)N5CCC7(CC5)CC(C(=O)N[C@H](C(=O)N5C[C@H](O)C[C@H]5C(=O)N[C@@H](C)c5ccc(-c8scnc8C)cc5)C(C)(C)C)C7)CC6)nc4c3F)c12` [Compound 88], the IC50 in the series on AGS (Homo sapiens, AGS, 96 h) stood at 33 nM; in the series on SW620 (Homo sapiens, SW-620, 96 h), 199 nM; in the series with H358 (Homo sapiens, NCI-H358) it was 90 nM. The “Cl_obs” value in series [7] worked out at 4.03 mL/min/kg. For the same compound, the “Vss_obs” value in series [7] turned out to be 0.780 L/kg. Moreover, the AUC(0-t) in [7] worked out at 4110 ng·h/mL. In series [7], this compound gave a half-life of 5.61 h. Also, the C0 in series [7] came to 5000 ng/mL. Moreover, the intrinsic metabolic clearance (microsomal CLint) in the series “in vitro [2]” amounted to 13.4 µL/min/mg; in the series “in vitro [3]”, 10.1 µL/min/mg; in the series “in vitro [4]”, 24.5 µL/min/mg; in the series “in vitro [5]” it was 13.3 µL/min/mg.
Turning to `CCc1c(F)ccc2cc(O)cc(-c3ncc4c(N5CCC[C@@](C)(O)C5)nc(OCC5(CN6CCC(OCc7ccc(-c8cn([C@H](C(=O)N9C[C@H](O)C[C@H]9C(=O)N[C@@H](C)c9ccc(-c%10scnc%10C)cc9)C(C)C)nn8)cc7)CC6)CC5)nc4c3F)c12` [Compound 93], the IC50 with AGS (Homo sapiens, AGS, 96 h) turned out to be 6.8 nM; in the series with SW620 (Homo sapiens, SW-620, 96 h) it was 86 nM; in the series with H358 (Homo sapiens, NCI-H358), 20 nM. Moreover, the DC50 on KRAS G12D [1] stood at 11 nM. Moreover, the intrinsic clearance (microsomal CLint) in “in vitro [2]” is 23.5 µL/min/mg; in the series “in vitro [3]”, 10.9 µL/min/mg; in the series “in vitro [4]” it was 8.3 µL/min/mg; in the series “in vitro [5]”, 28.5 µL/min/mg. The Dmax on KRAS G12D [6] is 95%.
Regarding `CCc1c(F)ccc2cc(O)cc(-c3ncc4c(N5CCC[C@@](C)(O)C5)nc(OCC5(CN6CCC(Oc7ccc(-c8cn([C@H](C(=O)N9C[C@H](O)C[C@H]9C(=O)N[C@@H](C)c9ccc(-c%10scnc%10C)cc9)C(C)C)nn8)nc7)CC6)CC5)nc4c3F)c12` [Compound 117], the half-inhibitory concentration (IC50) in the series on AGS (Homo sapiens, AGS, 96 h) turned out to be 13 nM; with PK59 it was 18.5 nM; with SW620 (Homo sapiens, SW-620, 96 h), 47 nM. The DC50 on KRAS G12D [1] came out at 7.5 nM. Also, the microsomal CLint came to 8.8 µL/min/mg in “in vitro [2]”, 11.3 µL/min/mg in “in vitro [3]”, 10.1 µL/min/mg in “in vitro [4]” and 6.6 µL/min/mg in “in vitro [5]”. The compound further had a Dmax on KRAS G12D [6] of 95%.
For `CCc1c(F)ccc2cc(O)cc(-c3ncc4c(N5CCC[C@@](C)(O)C5)nc(OCC5(CN6CCC(c7ccc(-c8cn([C@H](C(=O)N9C[C@H](O)C[C@H]9C(=O)N[C@@H](C)c9ccc(-c%10scnc%10C)cc9)C(C)C)nn8)cc7)CC6)CC5)nc4c3F)c12` [Compound 133], the 50% inhibitory concentration (IC50) in the series on AGS (Homo sapiens, AGS, 96 h) came to 13 nM; with SW620 (Homo sapiens, SW-620, 96 h), 74 nM; with H358 (Homo sapiens, NCI-H358), 48 nM. The “Cl_obs” value in series [7] worked out at 14.2 mL/min/kg. For the same compound, the “Vss_obs” value in [7] worked out at 2.49 L/kg. In addition, the area under the curve AUC(0-t) in [7] turned out to be 1200 ng·h/mL. This compound gave a half-life in [7] of 5.77 h. Further, the C0 in [7] worked out at 2840 ng/mL. The same compound yielded a DC50 at KRAS G12D [1] of 17 nM. For the same compound, the intrinsic metabolic clearance (microsomal CLint) stood at 7.4 µL/min/mg in “in vitro [2]”, 7.2 µL/min/mg in the series “in vitro [3]”, 8 µL/min/mg in “in vitro [4]” and 9.3 µL/min/mg in “in vitro [5]”. The Dmax at KRAS G12D [6] is 95%.
Consider `CCc1c(F)ccc2cc(O)cc(-c3ncc4c(N5CCC[C@@](C)(O)C5)nc(OCC5(CN6CCC(Oc7cc(-c8cn([C@H](C(=O)N9C[C@H](O)C[C@H]9C(=O)N[C@@H](C)c9ccc(-c%10scnc%10C)cc9)C(C)C)nn8)ccn7)CC6)CC5)nc4c3F)c12` [Compound 136], for which the IC50 in the series on AGS (Homo sapiens, AGS, 96 h) stood at 10 nM; in the series with SW620 (Homo sapiens, SW-620, 96 h), 53 nM; with H358 (Homo sapiens, NCI-H358), 6.6 nM. On KRAS G12D [1], this compound returned a DC50 of 14 nM. For the same compound, the microsomal CLint is 19.6 µL/min/mg in “in vitro [2]”, 8 µL/min/mg in the series “in vitro [3]”, 22.1 µL/min/mg in “in vitro [4]” and 20.8 µL/min/mg in the series “in vitro [5]”. For the same compound, the Dmax on KRAS G12D [6] came to 95%.
Take `C=C1CN2[C@@H](COC(=O)N3CCC4(CC3)CC(c3cn([C@H](C(=O)N5C[C@H](O)C[C@H]5C(=O)N[C@@H](C)c5ccc(-c6scnc6C)cc5)C(C)C)nn3)C4)CC[C@@]2(COc2nc(N3CCC[C@@](C)(O)C3)c3cnc(-c4cc(O)cc5ccc(F)c(CC)c45)c(F)c3n2)C1` [Compound 143]: the IC50 in the series on AGS (Homo sapiens, AGS, 96 h) stood at 16 nM; in the series on SW620 (Homo sapiens, SW-620, 96 h) it was 58 nM; in the series with H358 (Homo sapiens, NCI-H358), 24 nM. The compound also gave a DC50 at KRAS G12D [1] of 12 nM. The same compound returned a Dmax on KRAS G12D [6] of 95%.
Consider `CCc1c(F)ccc2cc(O)cc(-c3ncc4c(N5CCC[C@@](C)(O)C5)nc(OCC5(CN6CCN(C78CC(c9cn([C@H](C(=O)N%10C[C@H](O)C[C@H]%10C(=O)N[C@@H](C)c%10ccc(-c%11scnc%11C)cc%10)C(C)C)nn9)(C7)C8)CC6)CC5)nc4c3F)c12` [Compound 149, (2S,4R)-1-((S)-2-(4-(3-(4-((1-(((7-(8-ethyl-7-fluoro-3-hydroxynaphthalen-1-yl)-8-fluoro-4-((R)-3-hydroxy-3-methylpiperidin-1-yl)pyrido[4,3-d]pyrimidin-2-yl)oxy)methyl)cyclopropyl)methyl)piperazin-1-yl)bicyclic[1.1.1]pent-1-yl)-1H-1,2,3-triazol-1-yl)-3-methylbutanoyl)-4-hydroxy-N-( (S)-1-(4-(4-methylthiazol-5-yl)phenyl)ethyl)pyrrolidine-2-carboxamide], for which the half-maximal inhibitory concentration (IC50) in the series on AGS (Homo sapiens, AGS, 96 h) was 15 nM; in the series on PK59, 57 nM. This compound yielded a DC50 on KRAS G12D [1] of 7.6 nM. This compound also gave a Dmax on KRAS G12D [6] of 95%.
With `CCc1c(F)ccc2cc(O)cc(-c3ncc4c(N5CCC[C@@](C)(O)C5)nc(OCC5(CN6CCC(Oc7ccc(-c8cn([C@H](C(=O)N9C[C@H](O)C[C@H]9C(=O)N[C@@H](CO)c9ccc(-c%10ccnn%10CC)cc9)C(C)C)nn8)cn7)CC6)CC5)nc4c3F)c12` [Compound 160], the IC50 in the series with AGS (Homo sapiens, AGS, 96 h) was 14 nM; in the series with PK59 it was 19.5 nM; in the series on SW620 (Homo sapiens, SW-620, 96 h) it was 88 nM; in the series with H358 (Homo sapiens, NCI-H358), 17 nM. The same compound showed a DC50 at KRAS G12D [1] of 2 nM. At KRAS G12D [6], the Dmax was determined as 95%.
Consider “(2S,4R)-1-((S)-2-(4-(5-((1-((1-(((7-(8-ethyl-7-fluoro-3-hydroxynaphthalen-1-yl)-8-fluoro-4-((R)-3-hydroxy-3-methylpiperidin-1-yl)pyrido[4,3-d]pyrimidin-2-yl)oxy)methyl)cyclopropyl)methyl) piperidin-4-yl)oxy)pyrazin-2-yl)-1H-1,2,3-triazol-1-yl)-3-methylbutanoyl)-4-hydroxy-N-((1R,2R )-2-hydroxy-3-methyl-1-(4-(4-methylthiazol-5-yl)phenyl)butyl)pyrrolidine-2-carboxamide [Compound 184]”, for which the IC50 with AGS worked out at 2.7 nM; in the series on SW620, 11 nM; in the series on H358, 15 nM.

The IC50 is the concentration at which inhibition is half-maximal. One may read the microsomal CLint as the capacity of the preparation to metabolise the compound, expressed as a volume cleared per time. Broadly, the AUC(0-t) is exposure summed from dosing to a finite time, without extrapolation to infinity. Low readings indicate less exposure, high ones more exposure. One may read the half-life as the time in which the quantity being followed falls by half. Lower therefore signals fast loss.
